The source of these data is patent US20240254119A1 (THIRD HARMONIC BIO, INC., priority 2022, published 2024).

Data set [1] has as its target T1, wtKIT (Homo sapiens, UniProt P10721).
T1 construct: 1888289AM in the reaction mixtures
The data set is described as follows: Caliper biochemical assay, wtKIT. Conditions: Table 6, read-out: KIT Biochemical IC50 avg. An outline of the steps:
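Enzyme (5.0 nM wtKIT), 1 μM FAM-labelled peptide, 400 μM ATP and 10 mM MnCl2 in HEPES pH 7.5 with 1% DMSO, incubated 3 h at 25° C. EDTA quench; substrate and phosphoproduct separated by microfluidic electrophoresis and quantified by fluorescence.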

In data set [2] the target is T2, CSF-1R (Homo sapiens, UniProt P07333).
T2 construct: purchased Invitrogen PV3249 (lot 662393N)
T2 sequence (P07333 20-972): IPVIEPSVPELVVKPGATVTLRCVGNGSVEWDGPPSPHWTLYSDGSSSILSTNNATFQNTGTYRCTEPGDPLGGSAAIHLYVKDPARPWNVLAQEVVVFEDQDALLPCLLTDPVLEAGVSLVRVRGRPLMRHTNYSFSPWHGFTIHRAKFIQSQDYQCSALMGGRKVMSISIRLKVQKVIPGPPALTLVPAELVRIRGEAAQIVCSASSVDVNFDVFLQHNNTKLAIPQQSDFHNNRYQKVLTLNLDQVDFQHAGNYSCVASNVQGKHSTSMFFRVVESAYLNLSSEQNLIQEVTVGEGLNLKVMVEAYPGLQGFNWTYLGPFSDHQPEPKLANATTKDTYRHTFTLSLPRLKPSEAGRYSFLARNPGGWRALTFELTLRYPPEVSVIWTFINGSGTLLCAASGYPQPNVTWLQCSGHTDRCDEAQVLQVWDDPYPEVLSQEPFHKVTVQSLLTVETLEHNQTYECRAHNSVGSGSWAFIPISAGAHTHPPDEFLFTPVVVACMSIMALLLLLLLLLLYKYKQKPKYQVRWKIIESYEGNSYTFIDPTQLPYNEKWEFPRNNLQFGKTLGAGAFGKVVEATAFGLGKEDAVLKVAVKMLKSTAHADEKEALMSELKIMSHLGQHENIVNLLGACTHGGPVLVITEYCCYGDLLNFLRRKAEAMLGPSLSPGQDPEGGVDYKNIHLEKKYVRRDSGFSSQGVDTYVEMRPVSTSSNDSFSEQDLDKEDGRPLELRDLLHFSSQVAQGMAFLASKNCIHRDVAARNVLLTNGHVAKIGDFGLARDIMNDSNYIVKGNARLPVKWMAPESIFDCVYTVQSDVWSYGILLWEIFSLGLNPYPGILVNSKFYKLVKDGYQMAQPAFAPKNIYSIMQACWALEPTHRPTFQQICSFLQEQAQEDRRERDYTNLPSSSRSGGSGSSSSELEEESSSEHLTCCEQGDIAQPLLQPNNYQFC
The data set is described as follows: Caliper biochemical assay, CSF-1R. As to conditions: Table 6. In a few lines: (§1)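 Kinase, FAM-labelled peptide substrate, ATP and Mn^2+ incubated with compound for 3 h at 25° C, then quenched with EDTA buffer. Substrate and phosphorylated product separated by microfluidic electrophoresis and quantified by fluorescence intensity; no-enzyme wells define 100% inhibition.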

For data set [3], the target named is T3, PDGFRα (Homo sapiens, UniProt P16234).
T3 construct: purchased Millipore 14-467 (lot 26321_ACTI)
T3 sequence (P16234 24-1089): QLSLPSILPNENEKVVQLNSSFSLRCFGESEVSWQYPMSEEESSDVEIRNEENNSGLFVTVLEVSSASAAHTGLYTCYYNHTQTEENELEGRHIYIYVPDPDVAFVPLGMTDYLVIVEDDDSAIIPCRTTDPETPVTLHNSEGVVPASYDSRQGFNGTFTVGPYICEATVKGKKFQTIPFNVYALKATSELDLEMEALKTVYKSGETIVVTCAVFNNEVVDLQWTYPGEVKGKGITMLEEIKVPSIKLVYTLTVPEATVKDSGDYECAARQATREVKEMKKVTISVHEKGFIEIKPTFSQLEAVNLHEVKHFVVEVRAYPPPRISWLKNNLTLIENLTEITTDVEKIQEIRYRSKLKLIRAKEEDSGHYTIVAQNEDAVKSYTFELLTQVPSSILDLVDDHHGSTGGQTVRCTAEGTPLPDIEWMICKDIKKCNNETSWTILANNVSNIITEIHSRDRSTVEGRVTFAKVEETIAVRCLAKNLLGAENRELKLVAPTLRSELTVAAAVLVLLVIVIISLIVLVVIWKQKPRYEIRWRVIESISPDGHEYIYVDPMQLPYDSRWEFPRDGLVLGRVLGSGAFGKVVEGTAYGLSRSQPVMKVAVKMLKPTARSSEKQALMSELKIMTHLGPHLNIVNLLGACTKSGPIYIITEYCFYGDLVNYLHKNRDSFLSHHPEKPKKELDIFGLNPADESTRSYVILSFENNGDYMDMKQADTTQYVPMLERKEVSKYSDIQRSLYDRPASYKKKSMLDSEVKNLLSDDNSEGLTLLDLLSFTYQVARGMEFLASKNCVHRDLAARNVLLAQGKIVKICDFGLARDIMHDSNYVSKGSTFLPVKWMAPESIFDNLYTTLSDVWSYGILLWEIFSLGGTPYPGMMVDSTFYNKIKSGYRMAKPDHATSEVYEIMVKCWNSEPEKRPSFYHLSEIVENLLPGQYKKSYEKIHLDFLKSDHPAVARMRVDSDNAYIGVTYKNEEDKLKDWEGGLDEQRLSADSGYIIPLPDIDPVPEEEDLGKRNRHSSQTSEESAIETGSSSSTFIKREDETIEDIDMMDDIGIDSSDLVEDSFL
The experiment in a line: Caliper biochemical assay, PDGFRα. Conditions: Table 6. An outline of the steps:
as §1

For data set [4], the target named is T4, BCRP (BCRP-MDCKII monolayer) (Homo sapiens, UniProt Q9UNQ0).
T4 construct: host or cells: MDCKII (canine kidney) cells
T4 sequence (Q9UNQ0 1-655): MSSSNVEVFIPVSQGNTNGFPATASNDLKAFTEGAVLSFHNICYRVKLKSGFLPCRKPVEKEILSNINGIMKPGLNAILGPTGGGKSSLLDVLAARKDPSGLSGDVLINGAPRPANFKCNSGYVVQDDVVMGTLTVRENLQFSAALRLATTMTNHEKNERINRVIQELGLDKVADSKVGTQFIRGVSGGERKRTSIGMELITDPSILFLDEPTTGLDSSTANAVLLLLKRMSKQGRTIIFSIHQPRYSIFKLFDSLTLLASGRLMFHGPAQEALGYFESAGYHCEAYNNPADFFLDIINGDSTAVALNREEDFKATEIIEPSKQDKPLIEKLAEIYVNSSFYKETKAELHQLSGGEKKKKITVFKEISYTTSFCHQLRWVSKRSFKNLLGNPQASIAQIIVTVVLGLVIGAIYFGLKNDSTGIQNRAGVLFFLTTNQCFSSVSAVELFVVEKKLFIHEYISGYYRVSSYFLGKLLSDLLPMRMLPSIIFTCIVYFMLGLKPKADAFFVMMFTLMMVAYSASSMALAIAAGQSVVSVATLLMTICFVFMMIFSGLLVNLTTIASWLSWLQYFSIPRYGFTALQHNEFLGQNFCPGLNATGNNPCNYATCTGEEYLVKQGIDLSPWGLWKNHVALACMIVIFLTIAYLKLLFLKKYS
The data set is described as follows: MDCKII-BCRP bidirectional transport assay. Format: in vitro ADME. As to conditions: for MDCK-BCRP: Papp A-B: apical to basolateral. In a few lines:
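Bidirectional A→B and B→A transport across PreadyPort BCRP-MDCKII monolayers (days 12–15) was run in duplicate for 120 min at 37° C, 5% CO2 after a 15 min preincubation. Compound levels were measured by LC-MS/MS. Papp and recovery were calculated, with efflux ratio indicating transporter engagement.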

Data set [5] can be described thus: Kinetic solubility assay. Type of data set: physicochemical. As to conditions: kinetic solubility, 50 mM PB (pH 7.4), shaken 24 hours at RT. An outline of the steps:
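Test compounds from 10 mM DMSO stock were diluted in 50 mM phosphate buffer, pH 7.4, and shaken for 24 h at RT. After PTFE filtration and centrifugation, filtrate concentration was quantified by UPLC-UV/HPLC-UV against a standard curve.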

T1 sequence (P10721 26-976): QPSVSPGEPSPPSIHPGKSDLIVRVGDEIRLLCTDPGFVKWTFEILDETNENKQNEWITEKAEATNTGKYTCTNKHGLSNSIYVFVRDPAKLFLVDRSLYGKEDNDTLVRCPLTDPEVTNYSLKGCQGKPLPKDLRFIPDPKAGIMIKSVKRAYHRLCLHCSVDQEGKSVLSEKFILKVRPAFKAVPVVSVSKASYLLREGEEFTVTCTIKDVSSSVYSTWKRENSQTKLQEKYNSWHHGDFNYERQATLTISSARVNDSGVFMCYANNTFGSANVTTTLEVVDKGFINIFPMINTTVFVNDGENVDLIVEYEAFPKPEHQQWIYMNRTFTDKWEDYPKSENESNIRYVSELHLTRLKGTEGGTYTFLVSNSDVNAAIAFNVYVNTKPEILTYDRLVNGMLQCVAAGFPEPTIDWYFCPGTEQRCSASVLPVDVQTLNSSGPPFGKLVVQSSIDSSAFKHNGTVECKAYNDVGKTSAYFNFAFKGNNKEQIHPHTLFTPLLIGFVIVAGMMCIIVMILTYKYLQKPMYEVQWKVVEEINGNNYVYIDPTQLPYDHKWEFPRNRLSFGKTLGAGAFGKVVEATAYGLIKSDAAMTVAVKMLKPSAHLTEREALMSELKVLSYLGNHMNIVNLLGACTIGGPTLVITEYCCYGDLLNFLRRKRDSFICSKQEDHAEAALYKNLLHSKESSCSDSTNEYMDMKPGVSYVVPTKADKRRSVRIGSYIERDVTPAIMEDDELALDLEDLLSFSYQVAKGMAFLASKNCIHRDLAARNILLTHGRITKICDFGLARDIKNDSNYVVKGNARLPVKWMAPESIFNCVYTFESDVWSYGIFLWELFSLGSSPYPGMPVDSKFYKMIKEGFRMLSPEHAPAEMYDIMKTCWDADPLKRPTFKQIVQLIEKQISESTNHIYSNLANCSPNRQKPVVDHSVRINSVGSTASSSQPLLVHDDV

What is called IC50 is the concentration that inhibits the measured activity by half. Consider `CCCS(=O)(=O)N1CC(c2nc(-c3ccc(Cl)c(NC(=O)c4cnc5ccccn45)c3)no2)C1` [Compound I-220], for which the IC50 in data set [1] was at most 50 nM; in data set [2], 50 to 500 nM; in data set [3] it was 5000 to 30000 nM. In addition, in data set [4], the “MDCK-BCRP: Efflux Ratio” value came to 1.17. In data set [4], the “MDCK-BCRP: Papp A-B” value is reported as 26.4 10^−6 cm/s. Also, the “Solubility (μM)” value in data set [5] was “**** (a solubility less than or equal to 2 μM)”.
As for `Cc1ccc(-c2noc([C@@H](C)O)n2)cc1NC(=O)c1cnc2ccccn12` [Compound I-270], the IC50 in data set [1] is 50 to 500 nM; in data set [2] it was at most 50 nM; in data set [3], 5000 to 30000 nM. Besides, in data set [4], the “MDCK-BCRP: Efflux Ratio” value is listed as 20.8. Moreover, the “MDCK-BCRP: Papp A-B” value in data set [4] is 1.3 10^−6 cm/s. Moreover, the “Solubility (μM)” value in data set [5] is reported as “* (a solubility greater than 50 μM)”.
`Cc1ccc(-c2noc(C3CCC3F)n2)cc1NC(=O)c1cnc2ccccn12` (racemic) [Compound I-376]: the IC50 in data set [1] was at most 50 nM; in data set [2] it was at most 50 nM; in data set [3] it was 50 to 500 nM. The “MDCK-BCRP: Efflux Ratio” value in data set [4] is 1.02. The “MDCK-BCRP: Papp A-B” value in data set [4] is 6.24 10^−6 cm/s. Further, the “Solubility (μM)” value in data set [5] is “**** (a solubility less than or equal to 2 μM)”.
On to `Cc1nc(-c2ccc(C)c(NC(=O)c3cnc4ccc(N(C)C)cn34)c2)no1` [Compound I-205], for which the figures for the IC50 in data set [1], in data set [2] and in data set [3] were at most 50 nM, at most 50 nM and 50 to 500 nM, respectively. Moreover, the “MDCK-BCRP: Efflux Ratio” value in data set [4] came to 1.66. The “MDCK-BCRP: Papp A-B” value in data set [4] is on record as 23.5 10^−6 cm/s. Besides, the “Solubility (μM)” value in data set [5] is “**** (a solubility less than or equal to 2 μM)”.
For the compound `Cc1ccc(-c2noc([C@H]3C[C@@H]3F)n2)cc1NC(=O)c1cnc2cc(N3CCC3)ccn12` [Compound I-295], the IC50 in data set [1], in data set [2] and in data set [3] was at most 50 nM throughout. For the same compound, in data set [4], the “MDCK-BCRP: Efflux Ratio” value was 1.58. Also, the “MDCK-BCRP: Papp A-B” value in data set [4] is 6.12 10^−6 cm/s. For the same compound, in data set [5], the “Solubility (μM)” value is “**** (a solubility less than or equal to 2 μM)”.
For `Cc1ccc(-c2noc(C3CCC3F)n2)cc1NC(=O)c1cnc2ccccn12` (racemic) [Compound I-377], the concentration for half-maximal inhibition (IC50) was at most 50 nM in data set [1], at most 50 nM in data set [2] and 500 to 5000 nM in data set [3]. Further, in data set [4], the “MDCK-BCRP: Efflux Ratio” value is recorded as 0.98. Also, the “MDCK-BCRP: Papp A-B” value in data set [4] is 7.81 10^−6 cm/s. In addition, in data set [5], the “Solubility (μM)” value is “*** (a solubility greater than 2 μM and less than or equal to 10 μM)”.
On to `Cc1nc(-c2ccc(Cl)c(NC(=O)c3cnc4ccccn34)c2)no1` [Compound I-172], for which the results for the IC50 in data set [1], in data set [2] and in data set [3] were at most 50 nM, 50 to 500 nM and 500 to 5000 nM, respectively. Besides, in data set [4], the “MDCK-BCRP: Efflux Ratio” value came out at 0.81. Moreover, the “MDCK-BCRP: Papp A-B” value in data set [4] is listed as 6.02 10^−6 cm/s. Besides, the “Solubility (μM)” value in data set [5] is listed as “**** (a solubility less than or equal to 2 μM)”.
On to `COCCS(=O)(=O)N1CC(c2nc(-c3ccc(C)c(NC(=O)c4cnc5ccccn45)c3)no2)C1` [Compound I-235], for which the figures for the IC50 in data set [1], in data set [2] and in data set [3] were at most 50 nM, 50 to 500 nM and 5000 to 30000 nM, respectively. For the same compound, the “MDCK-BCRP: Efflux Ratio” value in data set [4] amounted to 6.86. Also, in data set [4], the “MDCK-BCRP: Papp A-B” value is reported as 3.11 10^−6 cm/s. Also, in data set [5], the “Solubility (μM)” value was “*** (a solubility greater than 2 μM and less than or equal to 10 μM)”.
As for `Cc1ccc(-c2noc(C(C)NS(C)(=O)=O)n2)cc1NC(=O)c1cnc2ccccn12` (single isomer, unassigned) [Compound I-237], the IC50 is 50 to 500 nM in data set [1], 500 to 5000 nM in data set [2] and 5000 to 30000 nM in data set [3]. In addition, the “MDCK-BCRP: Efflux Ratio” value in data set [4] is 11.5. The “MDCK-BCRP: Papp A-B” value in data set [4] is 1.66 10^−6 cm/s. Moreover, the “Solubility (μM)” value in data set [5] is “** (a solubility greater than 10 μM and less than or equal to 50 μM)”.
For `Cc1ccc(-c2noc(C(C)NS(C)(=O)=O)n2)cc1NC(=O)c1cnc2ccccn12` (single isomer, unassigned) [Compound I-238], the IC50 in data set [1] is at most 50 nM; in data set [2], 50 to 500 nM; in data set [3], 5000 to 30000 nM. Moreover, the “MDCK-BCRP: Efflux Ratio” value in data set [4] amounted to 22.7. The “MDCK-BCRP: Papp A-B” value in data set [4] is 0.92 10^−6 cm/s. Besides, the “Solubility (μM)” value in data set [5] is “* (a solubility greater than 50 μM)”.
`Cc1ccc(-c2noc([C@H]3CC(F)(F)CN3)n2)cc1NC(=O)c1cnc2ccccn12` [Compound I-359]: the IC50 in data set [1] was at most 50 nM; in data set [2] it was 50 to 500 nM; in data set [3], 500 to 5000 nM. The “MDCK-BCRP: Efflux Ratio” value in data set [4] came out at 7.14. Besides, the “MDCK-BCRP: Papp A-B” value in data set [4] is given as 4.68 10^−6 cm/s. Besides, in data set [5], the “Solubility (μM)” value is “* (a solubility greater than 50 μM)”.
Take `Cc1ccc(-c2noc(C3(C)CC(F)(F)CN3)n2)cc1NC(=O)c1cnc2ccccn12` (racemic) [Compound I-328]: the IC50 was at most 50 nM in data set [1], 50 to 500 nM in data set [2] and 500 to 5000 nM in data set [3]. In addition, the “MDCK-BCRP: Efflux Ratio” value in data set [4] is reported as 4.55. For the same compound, the “MDCK-BCRP: Papp A-B” value in data set [4] is 6.06 10^−6 cm/s. The “Solubility (μM)” value in data set [5] is “*** (a solubility greater than 2 μM and less than or equal to 10 μM)”.
Take `COC(=O)N1CC(c2nc(-c3ccc(C)c(NC(=O)c4cnn5cc(C#N)ccc45)c3)no2)C1` [Compound I-204]: the IC50 was at most 50 nM in data set [1], 50 to 500 nM in data set [2] and 5000 to 30000 nM in data set [3]. In addition, in data set [4], the “MDCK-BCRP: Efflux Ratio” value was determined as 6.11. In addition, in data set [4], the “MDCK-BCRP: Papp A-B” value was 3.27 10^−6 cm/s. Besides, the “Solubility (μM)” value in data set [5] is “*** (a solubility greater than 2 μM and less than or equal to 10 μM)”.
Turning to `Cc1ccc(-c2noc(CC(=O)O)n2)cc1NC(=O)c1cnc2ccccn12` [Compound I-335], the IC50 lay within 50 to 500 nM in data set [1], 500 to 5000 nM in data set [2] and 500 to 5000 nM in data set [3]. Moreover, the “MDCK-BCRP: Efflux Ratio” value in data set [4] worked out at 0.37. For the same compound, the “MDCK-BCRP: Papp A-B” value in data set [4] is 1.99 10^−6 cm/s. Further, in data set [5], the “Solubility (μM)” value is “* (a solubility greater than 50 μM)”.
On to `Cc1ccc(-c2noc(C3CC(C)(F)C3)n2)cc1NC(=O)c1cnc2ccccn12` (stereo not drawn) [Compound I-387], for which the IC50 in data set [1] was at most 50 nM; in data set [2], at most 50 nM; in data set [3], 50 to 500 nM. For the same compound, in data set [4], the “MDCK-BCRP: Efflux Ratio” value is listed as 0.82. Besides, the “MDCK-BCRP: Papp A-B” value in data set [4] is listed as 13.8 10^−6 cm/s. The “Solubility (μM)” value in data set [5] was “*** (a solubility greater than 2 μM and less than or equal to 10 μM)”.
Regarding `Cc1ccc(-c2noc(C3CC4(CCC4)C3)n2)cc1NC(=O)c1cnc2ccccn12` [Compound I-367], the IC50 in data set [1], in data set [2] and in data set [3] was at most 50 nM in each case. In addition, the “MDCK-BCRP: Efflux Ratio” value in data set [4] was determined as 1.18. Also, the “MDCK-BCRP: Papp A-B” value in data set [4] was 0.83 10^−6 cm/s. Also, in data set [5], the “Solubility (μM)” value is “**** (a solubility less than or equal to 2 μM)”.
With `CNC(=O)N1CC(c2nc(-c3ccc(C)c(NC(=O)c4cnc5ccccn45)c3)no2)C1` [Compound I-282], the figures for the IC50 in data set [1], in data set [2] and in data set [3] were at most 50 nM, 5000 to 30000 nM and 5000 to 30000 nM, respectively. The “MDCK-BCRP: Efflux Ratio” value in data set [4] worked out at 28.1. Moreover, the “MDCK-BCRP: Papp A-B” value in data set [4] was 0.55 10^−6 cm/s. Besides, the “Solubility (μM)” value in data set [5] is “** (a solubility greater than 10 μM and less than or equal to 50 μM)”.
